# Source: PubChem BioAssay (NCI)
#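 Following 48 hours of exposure in 96-well plates, responses at five concentrations were used to interpolate endpoints linearly. Abbreviation: GI50, concentration required for 50% inhibition of growth. The concentration for full growth arrest is given as TGI.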
# Legend:
# Test in all cases: NCI-60 cell line screen, 48 h
# [1] = test system: EKVX NSCLC
# [2] = test system: 786-0 renal
# [3] = test system: TK-10 renal
# [4] = test system: MDA-MB-435
# [5] = test system: UACC-62 melanoma
# [6] = test system: ACHN renal
# [7] = test system: UO-31 renal
# [8] = test system: KM12 colon
# [9] = test system: A498 renal
# [10] = test system: OVCAR-3 ovarian
# [11] = test system: MALME-3M melanoma
# [12] = test system: SK-MEL-2 melanoma
# [13] = test system: HOP-62 NSCLC
# [14] = test system: SF-539 CNS
# [15] = test system: BT-549 breast
# [16] = test system: SK-OV-3 ovarian
# [17] = test system: SN12C renal
# [18] = test system: NCI-H226 lung
# [19] = test system: PC-3 prostate
# [20] = test system: SK-MEL-28 melanoma
# [21] = test system: DU-145 prostate
# [22] = test system: M14 melanoma
# [23] = test system: SK-MEL-5 melanoma
# [24] = test system: UACC-257 melanoma
# [25] = test system: HCT-15 colon
# [26] = test system: NCI-H460 lung
# [27] = test system: SR leukemia
# [28] = test system: RXF 393 renal
# [29] = test system: SNB-75 CNS
# [30] = test system: MOLT-4 leukemia
# [31] = test system: HL-60(TB) leukemia
# [32] = test system: HT29 colon
# [33] = test system: OVCAR-5 ovarian
# [34] = test system: T-47D breast
# [35] = test system: NCI-H23 lung
# [36] = test system: MDA-N
# [37] = test system: LOX IMVI melanoma
# [38] = test system: HOP-92 NSCLC
# [39] = test system: IGROV1 ovarian
# [40] = test system: HS 578T breast
# [41] = test system: SF-268 CNS
# [42] = test system: SW-620 colon
# [43] = test system: HCC-2998 colon
# [44] = test system: A549 NSCLC
# [45] = test system: K-562 leukemia
# [46] = test system: MDA-MB-231 breast
# [47] = test system: U251 CNS
# [48] = test system: SF-295 CNS
# [49] = test system: OVCAR-8 ovarian
# [50] = test system: MCF7 breast
# [51] = test system: CCRF-CEM leukemia
# [52] = test system: SNB-19 CNS
# [53] = test system: NCI-H522 lung
# [54] = test system: OVCAR-4 ovarian
# [55] = test system: COLO 205 colon
# [56] = test system: HCT-116 colon
# [57] = test system: CAKI-1 renal
# [58] = test system: RPMI-8226 leukemia
# [59] = test system: NCI/ADR-RES ovarian
compound,measurement,setting,value
O=C1C=C(N2CCCC2)C(=O)c2c(O)ccc(O)c21,TGI,[1],> 10 µM
same,TGI,[2],> 10 µM
same,TGI,[3],> 10 µM
same,TGI,[4],> 1 µM
same,TGI,[5],> 10 µM
same,TGI,[6],> 10 µM
same,TGI,[7],> 10 µM
same,TGI,[8],> 10 µM
same,TGI,[9],> 10 µM
same,TGI,[10],> 10 µM
same,TGI,[11],> 10 µM
same,TGI,[12],> 10 µM
same,TGI,[13],> 10 µM
same,TGI,[14],> 10 µM
same,TGI,[15],> 10 µM
same,TGI,[16],> 10 µM
same,TGI,[17],> 10 µM
same,TGI,[18],> 10 µM
same,TGI,[19],> 10 µM
same,TGI,[20],> 10 µM
same,TGI,[21],> 10 µM
same,TGI,[22],> 10 µM
same,TGI,[23],> 10 µM
same,TGI,[24],> 10 µM
same,TGI,[25],> 10 µM
same,TGI,[26],> 10 µM
same,TGI,[27],> 1 µM
same,TGI,[28],> 10 µM
same,TGI,[29],> 10 µM
same,TGI,[30],> 10 µM
same,TGI,[31],> 10 µM
same,TGI,[32],> 10 µM
same,TGI,[33],> 10 µM
same,TGI,[34],> 10 µM
same,TGI,[35],> 1 µM
same,TGI,[36],> 10 µM
same,TGI,[37],> 10 µM
same,TGI,[38],> 10 µM
same,TGI,[39],> 10 µM
same,TGI,[40],> 10 µM
same,TGI,[41],> 10 µM
same,TGI,[42],> 10 µM
same,TGI,[43],> 10 µM
same,TGI,[44],> 10 µM
same,TGI,[45],> 10 µM
same,TGI,[46],> 10 µM
same,TGI,[47],> 1 µM
same,TGI,[48],> 10 µM
same,TGI,[49],> 10 µM
same,TGI,[50],> 10 µM
same,TGI,[51],5.19 µM
same,TGI,[52],> 10 µM
Cc1ccc(C2(N3CCCC3)OC(C)(C)c3cccc4cccc2c34)cc1 (configuration not stated),TGI,[1],24 µM
same,TGI,[2],37.6 µM
same,TGI,[3],38.6 µM
same,TGI,[4],28 µM
same,TGI,[5],27.5 µM
same,TGI,[6],29.9 µM
same,TGI,[7],28.3 µM
same,TGI,[8],> 100 µM
same,TGI,[53],25.6 µM
same,TGI,[9],30 µM
same,TGI,[10],30.3 µM
same,TGI,[11],41.4 µM
same,TGI,[12],28.2 µM
same,TGI,[13],32.3 µM
same,TGI,[54],27.6 µM
same,TGI,[14],32.1 µM
same,TGI,[15],31.3 µM
same,TGI,[16],29.3 µM
same,TGI,[17],32.6 µM
same,TGI,[18],31.8 µM
same,TGI,[19],36.2 µM
same,TGI,[21],32.8 µM
same,TGI,[55],30.3 µM
same,TGI,[22],34 µM
same,TGI,[23],28.2 µM
same,TGI,[24],31 µM
same,TGI,[25],32.2 µM
same,TGI,[26],26.3 µM
same,TGI,[27],67.6 µM
same,TGI,[28],27.1 µM
same,TGI,[56],38.4 µM
same,TGI,[29],26.3 µM
same,TGI,[30],> 100 µM
same,TGI,[31],> 100 µM
same,TGI,[32],26.2 µM
same,TGI,[33],31.4 µM
same,TGI,[57],36.5 µM
same,TGI,[34],46.9 µM
same,TGI,[35],29.9 µM
same,TGI,[36],29.9 µM
same,TGI,[37],29.3 µM
same,TGI,[38],21.2 µM
same,TGI,[39],29.8 µM
same,TGI,[40],31.8 µM
same,TGI,[41],25.8 µM
same,TGI,[58],71.9 µM
same,TGI,[42],30.9 µM
same,TGI,[44],24.6 µM
same,TGI,[45],> 100 µM
same,TGI,[47],29.4 µM
same,TGI,[48],28 µM
same,TGI,[49],29.8 µM
same,TGI,[50],32.5 µM
same,TGI,[51],> 100 µM
same,TGI,[52],29.8 µM
same,TGI,[59],30.1 µM
CN(NC(=O)CC(=O)NN(C)C(=S)c1ccccc1)C(=S)c1ccccc1,TGI,[1],> 100 µM
same,GI50,[2],56.3 µM
same,TGI,[2],> 100 µM
same,TGI,[3],> 100 µM
same,GI50,[4],> 84.4 µM
same,TGI,[4],> 100 µM
same,TGI,[5],> 100 µM
same,GI50,[6],73.9 µM
same,TGI,[6],> 100 µM
same,GI50,[7],14.6 µM
same,TGI,[7],> 89.6 µM
same,GI50,[8],65.1 µM
same,TGI,[8],> 100 µM
same,GI50,[53],69.9 µM
same,TGI,[53],> 100 µM
same,TGI,[10],> 100 µM
same,GI50,[11],> 69.5 µM
same,TGI,[11],> 100 µM
same,GI50,[12],8.77 µM
same,TGI,[12],> 100 µM
same,GI50,[13],> 69.2 µM
same,TGI,[13],> 100 µM
same,GI50,[54],> 71.2 µM
same,TGI,[54],> 100 µM
same,TGI,[14],> 100 µM
same,GI50,[15],88.7 µM
same,TGI,[15],> 100 µM
same,TGI,[16],> 100 µM
same,GI50,[17],> 100 µM
same,TGI,[17],> 100 µM
same,TGI,[18],> 100 µM
same,GI50,[19],51.5 µM
same,TGI,[19],> 100 µM
same,GI50,[20],> 72.8 µM
same,TGI,[20],> 100 µM
same,GI50,[21],> 59.2 µM
same,TGI,[21],> 100 µM
same,TGI,[55],> 100 µM
same,GI50,[22],> 73.7 µM
same,TGI,[22],> 100 µM
same,GI50,[23],49.1 µM
same,TGI,[23],> 100 µM
same,GI50,[25],32.1 µM
same,TGI,[25],> 100 µM
same,GI50,[26],0.0843 µM
same,TGI,[26],> 100 µM
same,TGI,[27],> 100 µM
same,GI50,[28],> 61.1 µM
same,TGI,[28],> 100 µM
same,TGI,[56],> 100 µM
same,GI50,[29],> 54.6 µM
same,TGI,[29],> 100 µM
same,GI50,[31],> 70.7 µM
same,TGI,[31],> 100 µM
same,TGI,[32],> 100 µM
same,TGI,[33],> 100 µM
same,GI50,[57],> 55.7 µM
same,TGI,[57],> 100 µM
same,GI50,[35],> 87.4 µM
same,TGI,[35],> 100 µM
same,TGI,[36],> 100 µM
same,TGI,[37],> 100 µM
same,TGI,[38],> 100 µM
same,TGI,[39],> 100 µM
same,GI50,[40],19.2 µM
same,TGI,[40],> 100 µM
same,GI50,[41],67.2 µM
same,TGI,[41],> 100 µM
same,TGI,[58],> 100 µM
same,TGI,[42],> 100 µM
same,TGI,[43],> 100 µM
same,GI50,[44],16.7 µM
same,TGI,[44],> 100 µM
same,GI50,[45],40.8 µM
same,TGI,[45],> 100 µM
same,GI50,[46],> 100 µM
same,TGI,[46],> 100 µM
same,GI50,[47],49.8 µM
same,TGI,[47],> 100 µM
same,TGI,[48],> 100 µM
same,GI50,[49],> 66.7 µM
same,TGI,[49],> 100 µM
same,GI50,[50],< 0.01 µM
same,TGI,[50],> 100 µM
same,GI50,[51],64.7 µM
same,TGI,[51],> 100 µM
same,TGI,[52],> 100 µM
same,GI50,[59],55.3 µM
same,TGI,[59],> 100 µM
